# Results reported in patent US10294212B2 (CURADEV PHARMA PRIVATE LTD., priority 2013, dated 2019).
# Target: Human indoleamine 2,3-dioxygenase1 (hIDO1) (Homo sapiens (Human), UniProt P14902)
# Experiment: In-vitro IDO1 enzyme assay (conversion of L-tryptophan to KYN)
# Format: biochemical
# Details: read-out: IC50 (IDO1) Enz
# Procedure, shortened: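 His-tagged hIDO1 (10 nM, E. coli-expressed) incubated with 30 μM L-tryptophan, 20 mM ascorbate, 10 μM methylene blue and 100 μg/mL catalase in 50 mM potassium phosphate pH 6.5, 30 min at 37 °C. TCA stop, then 65 °C hydrolysis; KYN measured by HPLC-UV at 360 nm or LC/MS/MS. IC50 by nonlinear regression versus 1% DMSO control.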
# Sequence of Human indoleamine 2,3-dioxygenase1 (hIDO1) (P14902 whole entry): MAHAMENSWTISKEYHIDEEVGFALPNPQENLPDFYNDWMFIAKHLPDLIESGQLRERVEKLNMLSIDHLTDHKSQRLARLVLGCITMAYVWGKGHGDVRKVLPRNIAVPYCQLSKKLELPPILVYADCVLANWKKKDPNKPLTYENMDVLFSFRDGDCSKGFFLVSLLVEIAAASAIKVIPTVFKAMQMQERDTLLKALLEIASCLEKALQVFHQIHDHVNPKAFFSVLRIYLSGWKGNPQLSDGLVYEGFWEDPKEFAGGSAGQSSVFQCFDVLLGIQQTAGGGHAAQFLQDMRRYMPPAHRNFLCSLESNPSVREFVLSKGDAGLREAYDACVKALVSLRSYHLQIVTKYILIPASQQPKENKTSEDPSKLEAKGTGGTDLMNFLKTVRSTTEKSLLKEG
row,Structure (SMILES),IC50
1,"Nc1oc2cnccc2c1Nc1ccc(F)c(Cl)c1 [Compound 2, N^3-(3-Chloro-4-fluoro-phenyl)-furo[2,3-c]pyridine-2,3-diamine]",< 200 nM
2,"Nc1oc2c(-c3ccncc3)nccc2c1Nc1ccc(F)c(Cl)c1 [Compound 97, N^3-(3-Chloro-4-fluorophenyl)-7-(pyridin-4-yl)furo[2,3-c]pyridine-2,3-diamine]",< 200 nM
3,"Nc1oc2c(-c3ccncc3)nccc2c1Nc1ccc(F)c(F)c1 [Compound 184, N^3-(3,4-difluorophenyl)-7-(pyridin-4-yl)furo[2,3-c]pyridine-2,3-diamine]",< 200 nM

# Target: IDO1 in HeLa cells (Homo sapiens (Human), UniProt P14902)
# Sequence (P14902 whole entry): as above
# Experiment: HeLa cell based IDO1 assay (IFNγ-induced, KYN in supernatant)
# Details: not given
# Procedure, shortened: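 HeLa cells were induced overnight with IFNγ (50 ng/mL), washed, then exposed to compound (typically 10 μM–1 nM) in HBSS with 80 μM L-tryptophan. Supernatant was TCA-treated at 65 °C for 15 min to convert N-formylkynurenine, and KYN was measured by HPLC-UV at 360 nm. IC50 came from nonlinear regression against a 1% DMSO control.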
row,Structure (SMILES),IC50
1,"Nc1oc2cnccc2c1Nc1ccc(F)c(Cl)c1 [Compound 2, N^3-(3-Chloro-4-fluoro-phenyl)-furo[2,3-c]pyridine-2,3-diamine]",< 200 nM
2,"Nc1oc2c(-c3ccncc3)nccc2c1Nc1ccc(F)c(Cl)c1 [Compound 97, N^3-(3-Chloro-4-fluorophenyl)-7-(pyridin-4-yl)furo[2,3-c]pyridine-2,3-diamine]",< 200 nM
3,"Nc1oc2c(-c3ccncc3)nccc2c1Nc1ccc(F)c(F)c1 [Compound 184, N^3-(3,4-difluorophenyl)-7-(pyridin-4-yl)furo[2,3-c]pyridine-2,3-diamine]",< 200 nM

# Target: Human TDO (hTDO)-transfected CHO-K1 cells (Homo sapiens (Human), UniProt P48775)
# Sequence (P48775 whole entry): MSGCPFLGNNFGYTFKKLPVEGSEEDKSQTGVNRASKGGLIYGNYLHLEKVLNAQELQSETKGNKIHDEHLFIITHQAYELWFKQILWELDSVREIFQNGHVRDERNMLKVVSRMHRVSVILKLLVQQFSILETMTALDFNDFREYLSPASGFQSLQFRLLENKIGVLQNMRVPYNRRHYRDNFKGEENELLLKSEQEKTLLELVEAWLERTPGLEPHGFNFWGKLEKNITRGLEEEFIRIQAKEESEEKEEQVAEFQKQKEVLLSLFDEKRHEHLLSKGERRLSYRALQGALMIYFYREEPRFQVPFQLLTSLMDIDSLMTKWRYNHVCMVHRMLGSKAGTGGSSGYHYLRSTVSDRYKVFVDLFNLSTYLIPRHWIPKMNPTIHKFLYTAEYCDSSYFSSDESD
# Experiment: CHO-K1 cell based TDO assay
# Details: hTDO cellular assay
# Procedure, shortened: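 Stably hTDO-expressing CHO-K1 cells were exposed to compounds (typically 31 μM to 10 nM) in HBSS with 80 μM L-tryptophan for 2 h. TCA-treated supernatant was heated at 65° C for 15 min to convert N-formylkynurenine, then kynurenine was quantified by LC/MS/MS. IC50 came from percent inhibition versus DMSO control.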
row,Structure (SMILES),IC50
1,"Nc1oc2cnccc2c1Nc1ccc(F)c(Cl)c1 [Compound 2, N^3-(3-Chloro-4-fluoro-phenyl)-furo[2,3-c]pyridine-2,3-diamine]",500 to 2000 nM
2,"Nc1oc2c(-c3ccncc3)nccc2c1Nc1ccc(F)c(Cl)c1 [Compound 97, N^3-(3-Chloro-4-fluorophenyl)-7-(pyridin-4-yl)furo[2,3-c]pyridine-2,3-diamine]",< 500 nM
3,"Nc1oc2c(-c3ccncc3)nccc2c1Nc1ccc(F)c(F)c1 [Compound 184, N^3-(3,4-difluorophenyl)-7-(pyridin-4-yl)furo[2,3-c]pyridine-2,3-diamine]",< 500 nM
